Data set [1] concerns A549. As to the kind of experiment: Cytotoxicity against human A549 cells assessed as reduction in cell viability measured after 96 hrs b y CCK-8 assay. The class given is functional, cell-based. The settings on record: A549, 96 h. In general terms: Tetrazolium dyes change colour on reduction, which living cells bring about.
A short description of data set [2]: Helicity of the compound in TFE aqueous solution by CD spectroscopy. Format: physicochemical. The settings on record: buffer.
Data set [3] has as its system A549. As to the kind of experiment: Inhibition of colony formation in human A549 cells measured after 14 days by crystal violet staining based light microscopy. Format: functional, cell-based. The settings on record: dose 0-4 µM, time 14.0 day.
In data set [4] the target is T1, trypsin (Homo sapiens, UniProt P07477+P07478+P35030). Kind of data set: Stability of the compound assessed as trypsin (unknown origin)-mediated degradation by measuring half life using pH 7.4 PBS buffer by HPLC analysis. Format: ADME, protein assay. The settings on record: trypsin in PBS buffer.
For data set [5], the system named is LNCaP C4-2B. As to the kind of experiment: Cytotoxicity against human LNCaP C4-2B cells assessed as reduction in cell viability measured after 96 hrs b y CCK-8 assay. The class given is functional, cell-based.
Data set [6] concerns A549. As to the kind of experiment: Antimigratory activity against human A549 cells assessed as inhibition of cell migration measured for 24 hrs by crystal violet staining - light microscopy based transwell migration assay. The class given is functional. The settings on record: dose 0-4 µM.
A short description of data set [7]: Hemolytic activity in rabbit red blood cells assessed as hemoglobin release. Format: ADME, cell-based, Oryctolagus cuniculus, Erythrocyte.
Data set [8] relates to HEK-293T. As to the kind of experiment: Cytotoxicity against human HEK293T cells assessed as reduction in cell viability measured after 96 hrs b y CCK-8 assay. The class given is cell-based.
In data set [9] the target is T1, trypsin. Kind of data set: Stability of the compound assessed as trypsin (unknown origin)-mediated degradation using pH 7.4 PBS buffer measured for 60 mins by HPLC analysis. Format: ADME, protein assay. The settings on record: trypsin in PBS buffer, read-out: Drug degradation.

Where a SMILES comes first, the peptide text is derived from it. Bridges are numbered along the chain shown (N, C = ends). [ ]: non-standard residue; d: D form. S8 = C=CCCCCCC[C@](C)(N)C(=O)O; S5 = C=CCCC[C@](C)(N)C(=O)O

The results in this text go back to ChEMBL document CHEMBL4819116, “Design, synthesis, and biological evaluation of stapled ascaphin-8 peptides” (Bioorg Med Chem, 2021).

By IC50 is commonly meant the concentration at which inhibition is half-maximal. As usually defined, the half-life is how long it takes for the measured level to halve. In general, HC50 refers to the concentration that lyses half of the red blood cells. With `CC(C)C[C@H](NC(=O)[C@H](CC(C)C)NC(=O)[C@H](CC(=O)O)NC(=O)[C@H](CCCCN)NC(=O)[C@H](Cc1ccccc1)NC(=O)CN)C(=O)N[C@@H](CCCCN)C(=O)NCC(=O)N[C@@H](C)C(=O)N[C@@H](C)C(=O)N[C@@H](CCCCN)C(=O)N[C@@]1(C)CCC/C=C\CCC[C@@](C)(C(=O)N[C@H](C(=O)N[C@@H](CC(C)C)C(=O)N[C@@H](Cc2ccccc2)C(N)=O)C(C)C)NC(=O)[C@H](CCCCN)NC(=O)[C@H](C(C)C)NC(=O)[C@H](CC(C)C)NC1=O` (H-GFKDLLKGAAK[S5]LVK[S5]VLF-NH2; staple (Z) 12-16), the IC50 in data set [1] was 2.39 µM; in data set [5], 7.17 µM; in data set [8] it was 16.4 µM. In addition, the Activity in data set [2] was 51%; in [6] it was “Dose-Dependent Effect”. Further, the inhibition result in [3] was “Dose-Dependent Effect”. The half-life in [4] turned out to be 36 min. For the same compound, the HC50 in data set [7] was 40.6 µM.
On to `CC(C)C[C@@H]1NC(=O)[C@H](C)NC(=O)[C@H](CCCCN)NC(=O)[C@H](C)NC(=O)[C@@](C)(NC(=O)CNC(=O)[C@H](CCCCN)NC(=O)[C@H](CC(C)C)NC(=O)[C@H](CC(C)C)NC(=O)[C@H](CC(=O)O)NC(=O)[C@H](CCCCN)NC(=O)[C@H](Cc2ccccc2)NC(=O)CN)CCCCCC/C=C/CCC[C@@](C)(C(=O)N[C@H](C(=O)N[C@@H](CC(C)C)C(=O)N[C@@H](Cc2ccccc2)C(N)=O)C(C)C)NC(=O)[C@H](CCCCN)NC(=O)[C@H](C(C)C)NC1=O` (H-GFKDLLKG[S8]AKALVK[S5]VLF-NH2; staple (E) 9-16), for which the results for the IC50 in data set [1], in data set [5] and in data set [8] were 11.7 µM, 17.3 µM and 44.3 µM, respectively. Besides, the Activity in data set [2] was determined as 80%. In data set [7], the 50% haemolytic concentration (HC50) came to 90.5 µM.
Regarding `CC(C)C[C@H](NC(=O)[C@H](CC(=O)O)NC(=O)[C@H](CCCCN)NC(=O)[C@H](Cc1ccccc1)NC(=O)CN)C(=O)N[C@@H](CC(C)C)C(=O)N[C@@H](CCCCN)C(=O)N[C@@]1(C)CCC/C=C\CCC[C@@](C)(C(=O)N[C@@H](CC(C)C)C(=O)N[C@H](C(=O)N[C@@H](CCCCN)C(=O)N[C@H](C(=O)N[C@H](C(=O)N[C@@H](CC(C)C)C(=O)N[C@@H](Cc2ccccc2)C(N)=O)C(C)C)[C@@H](C)O)C(C)C)NC(=O)[C@H](CCCCN)NC(=O)[C@H](C)NC(=O)[C@H](C)NC1=O` (H-GFKDLLK[S5]AAK[S5]LVKTVLF-NH2; staple (Z) 8-12), the IC50 in [1] is 2.57 µM; in data set [5] it was 7.88 µM; in data set [8], 19.7 µM. In data set [2], this compound displayed an Activity of 48%. Moreover, the HC50 in [7] came to 40.2 µM.
As for `CC(C)C[C@H](NC(=O)[C@H](C)NC(=O)[C@H](CCCCN)NC(=O)[C@H](C)NC(=O)[C@H](C)NC(=O)[C@]1(C)CCC/C=C\CCC[C@](C)(NC(=O)[C@H](CCCCN)NC(=O)[C@H](Cc2ccccc2)NC(=O)CN)C(=O)N[C@@H](CC(C)C)C(=O)N[C@@H](CC(C)C)C(=O)N[C@@H](CCCCN)C(=O)N1)C(=O)N[C@H](C(=O)N[C@@H](CCCCN)C(=O)N[C@H](C(=O)N[C@H](C(=O)N[C@@H](CC(C)C)C(=O)N[C@@H](Cc1ccccc1)C(N)=O)C(C)C)[C@@H](C)O)C(C)C` (H-GFK[S5]LLK[S5]AAKALVKTVLF-NH2; staple (Z) 4-8), the IC50 came to 4.1 µM in data set [1], 11.1 µM in [5] and 33.9 µM in data set [8]. The compound further registered an Activity in data set [2] of 42%. The HC50 in [7] worked out at 79.9 µM.
In the case of H-GFKDLLKGAAKALVKTVLF-NH2 [Ascaphin-8], the IC50 in data set [1] came to 33.8 µM; in data set [5] it was 42.9 µM; in [8], 53.7 µM. The same compound had an Activity in data set [2] of 47%. For the same compound, in data set [9], the metabolised at 1 h was found to be 100%. In [4], the half-life is 14 min. In addition, in data set [7], the HC50 is > 100 µM.
